Measured values from the supplement of paper PMC8612539.
Converted amounts (≈) assume the structure as drawn.

Tested on: Histophilus somni
Experiment: minimum inhibitory concentration (MIC)
Description: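 Broth microdilution MIC (Sensititre BOPO7F bovine plate, CLSI methods) of 19 antimicrobials against field isolates of P. multocida, M. haemolytica, H. somni (deep nasopharyngeal swabs) and E. coli, Enterococcus spp. (rectal swabs) from weaned dairy heifers. Incubation 16-24 h at 35 C. MIC is the lowest concentration preventing visible growth. Values with <= or > lie at the tested range limits. Trimethoprim-sulfamethoxazole is given as the trimethoprim component of a 1:19 mixture.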

CS(=O)(=O)c1ccc([C@@H](O)[C@@H](CF)NC(=O)C(Cl)Cl)cc1 [Florfenicol]
Conditions | minimum inhibitory concentration [µg/mL]
isolate (source animal id): 3 | ≤ 0.25
isolate (source animal id): 4 | 1 (≈ 2.79 µM)
isolate (source animal id): 7 | 1 (≈ 2.79 µM)
isolate (source animal id): 14 | 1 (≈ 2.79 µM)
isolate (source animal id): 15 | ≤ 0.25
isolate (source animal id): 17 | 1 (≈ 2.79 µM)
isolate (source animal id): 18 | ≤ 0.25
isolate (source animal id): 20 | 1 (≈ 2.79 µM)
isolate (source animal id): 23 | ≤ 0.25
isolate (source animal id): 45 | 1 (≈ 2.79 µM)
isolate (source animal id): 53 | 1 (≈ 2.79 µM)
isolate (source animal id): 83 | 0.5 (≈ 1.4 µM)
isolate (source animal id): 88 | 0.5 (≈ 1.4 µM)
isolate (source animal id): 92 | 0.5 (≈ 1.4 µM)
isolate (source animal id): 93 | ≤ 0.25
isolate (source animal id): 99 | 0.5 (≈ 1.4 µM)
isolate (source animal id): 100 | 0.5 (≈ 1.4 µM)
isolate (source animal id): 105 | 0.5 (≈ 1.4 µM)
isolate (source animal id): 107 | 0.5 (≈ 1.4 µM)
isolate (source animal id): 108 | 1 (≈ 2.79 µM)
isolate (source animal id): 109 | 0.5 (≈ 1.4 µM)
isolate (source animal id): 110 | 0.5 (≈ 1.4 µM)
isolate (source animal id): 117 | 0.5 (≈ 1.4 µM)
isolate (source animal id): 121 | 0.5 (≈ 1.4 µM)
isolate (source animal id): 123 | ≤ 0.25
isolate (source animal id): 124 | ≤ 0.25
isolate (source animal id): 127 | ≤ 0.25
isolate (source animal id): 128 | 0.5 (≈ 1.4 µM)
isolate (source animal id): 130 | 1 (≈ 2.79 µM)
isolate (source animal id): 132 | 0.5 (≈ 1.4 µM)
isolate (source animal id): 135 | 0.5 (≈ 1.4 µM)
isolate (source animal id): 140 | 0.5 (≈ 1.4 µM)
isolate (source animal id): 141 | ≤ 0.25
isolate (source animal id): 142 | 1 (≈ 2.79 µM)
isolate (source animal id): 144 | ≤ 0.25
isolate (source animal id): 146 | 0.5 (≈ 1.4 µM)
isolate (source animal id): 147 | 1 (≈ 2.79 µM)
isolate (source animal id): 151 | 0.5 (≈ 1.4 µM)
isolate (source animal id): 153 | ≤ 0.25
isolate (source animal id): 154 | 1 (≈ 2.79 µM)
isolate (source animal id): 156 | 1 (≈ 2.79 µM)
isolate (source animal id): 157 | ≤ 0.25
isolate (source animal id): 176 | ≤ 0.25
isolate (source animal id): 183 | ≤ 0.25
isolate (source animal id): 186 | ≤ 0.25
isolate (source animal id): 196 | ≤ 0.25
isolate (source animal id): 198 | ≤ 0.25
isolate (source animal id): 200 | ≤ 0.25
isolate (source animal id): 206 | ≤ 0.25
isolate (source animal id): 208 | ≤ 0.25
isolate (source animal id): 210 | ≤ 0.25
isolate (source animal id): 212 | ≤ 0.25
isolate (source animal id): 215 | ≤ 0.25
isolate (source animal id): 216 | ≤ 0.25
isolate (source animal id): 218 | ≤ 0.25
isolate (source animal id): 219 | ≤ 0.25
isolate (source animal id): 224 | ≤ 0.25
isolate (source animal id): 228 | ≤ 0.25
isolate (source animal id): 230 | ≤ 0.25
isolate (source animal id): 233 | 1 (≈ 2.79 µM)
isolate (source animal id): 238 | ≤ 0.25
isolate (source animal id): 239 | 1 (≈ 2.79 µM)
isolate (source animal id): 241 | ≤ 0.25
isolate (source animal id): 242 | ≤ 0.25
isolate (source animal id): 243 | ≤ 0.25
isolate (source animal id): 245 | 1 (≈ 2.79 µM)
isolate (source animal id): 246 | ≤ 0.25
isolate (source animal id): 247 | ≤ 0.25
isolate (source animal id): 248 | ≤ 0.25
isolate (source animal id): 250 | ≤ 0.25
isolate (source animal id): 251 | ≤ 0.25
isolate (source animal id): 252 | ≤ 0.25
isolate (source animal id): 254 | ≤ 0.25
isolate (source animal id): 258 | ≤ 0.25
isolate (source animal id): 259 | ≤ 0.25
isolate (source animal id): 262 | 1 (≈ 2.79 µM)
isolate (source animal id): 264 | ≤ 0.25
isolate (source animal id): 265 | ≤ 0.25
isolate (source animal id): 266 | ≤ 0.25
isolate (source animal id): 267 | ≤ 0.25
isolate (source animal id): 269 | ≤ 0.25
isolate (source animal id): 271 | ≤ 0.25
isolate (source animal id): 272 | ≤ 0.25
isolate (source animal id): 274 | 1 (≈ 2.79 µM)
isolate (source animal id): 276 | ≤ 0.25
isolate (source animal id): 278 | ≤ 0.25
isolate (source animal id): 280 | ≤ 0.25
isolate (source animal id): 281 | ≤ 0.25
isolate (source animal id): 283 | ≤ 0.25
isolate (source animal id): 288 | ≤ 0.25
isolate (source animal id): 291 | 0.5 (≈ 1.4 µM)
isolate (source animal id): 292 | ≤ 0.25
isolate (source animal id): 296 | ≤ 0.25
isolate (source animal id): 306 | ≤ 0.25
isolate (source animal id): 336 | ≤ 0.25
isolate (source animal id): 337 | ≤ 0.25
isolate (source animal id): 341 | ≤ 0.25
